From patent US8969366B2, “Substituted pyrimidinylpyrrolopyridinone derivatives, process for their preparation and their use as kinase inhibitors” (Nerviano Medical Sciences S.R.L., priority 2009, dated 2015)
Structures can show the parent of a compound that is named as a salt.

Columns and labels:
Assay type in all cases: cell-based
[1] = test system: human melanoma cells Mewo (with wild-type B-Raf); test: In vitro cell proliferation assay, Mewo; settings: 72 hours treatment, cell number by ATP monitoring system
Procedure: (§1) In Vitro Cell Proliferation Assay Exponentially growing human melanoma cells A375 (with a mutated B-RAF) and human melanoma cells Mewo (with wild-type B-Raf) were seeded and incubated at 37° C. in a humidified 5% CO2 atmosphere. After 24 hours, scalar doses of the compound were added to the medium and cells oncubated for 72 hours. At the end of treatment, cells were washed and counted. Cell number was determined by a cellular adenosine triphosphate monitoring system. Cell proliferation was compared to control cells and the concentration inhibiting cell growth by 50% was calculated. p-MAPK (T202/Y204) ArrayScan Assay

[2] = test system: human melanoma cells A375 (with a mutated B-RAF); test: In vitro cell proliferation assay, A375; settings: A-375, 72 hours treatment, cell number by ATP monitoring system
Procedure: as §1

[3] = test system: p-MAPK (T202/Y204) in A375 human melanoma cells, having a mutated B-RAF; test: p-MAPK (T202/Y204) ArrayScan assay; settings: A-375, A375 cells treated 1.5 or 2 hours, cytoplasmatic p-MAPK fluorescence intensity, read-out: Array Scan A375 IC50
Procedure: A375 human melanoma cells, having a mutated B-RAF, are seeded in 384-well poly-lysine coated plates (Matrix) at a density of 1000 cells/well with appropriate medium supplemented with 10% FCS and incubated for 16-24 hours. Cells are treated for 1.5 or 2 hours with increasing doses of compounds (starting dose 10 μM, dilution factor 2.5). At the end of the treatment cells are fixed with p-formaldehyde 3.7% for 15-30 min, then washed twice with D-PBS (80 µl/well) and permeabilized with D-PBS containing 0.1% Triton X-100 and 1% BSA (Sigma-Aldrich) for 15 minutes at room temperature (staining solution). Anti-phospho-MAPK (T202/Y204) monoclonal antibody E10 (Cell Signaling, cat. #9106) diluted 1:100 is added in staining solution and incubated for 1 hour at 37° C. After removal of the primary antibody solution, the anti-mouse Cy™2-conjugated (Green) secondary antibody (Amersham) diluted 1:500 in staining solution containing 2 μg/ml DAPI is added. The plate is incubated for 1 hour at 37° C., washed twice and then red with Cellomics' ArrayScan VTI (4 fields/well, CytoNucTrans algorithm).
The parameter “MEAN_RingAvgIntenCh2”, which measures the mean cytoplasmatic fluorescence intensity associated to p-MAPK staining, is reported as the final result.

| SMILES | IC50 [1] [nM] | IC50 [2] [nM] | IC50 [3] [nM] |
| --- | --- | --- | --- |
| Cn1c2c(c(-c3cccc(NC(=O)Nc4ccc(C(F)(F)F)cc4)c3)c1-c1ccnc(N)n1)C(=O)NCC2 [compound 1, 1-{3-[2-(2-Amino-pyrimidin-4-yl)-1-methyl-4-oxo-4,5,6,7-tetrahydro-1H-pyrrolo-[3,2-c]pyridin-3-yl]-phenyl}-3-(4-trifluoromethyl-phenyl)-urea] | > 10000 | 8220 | 5600 |
| Cn1c(-c2nc(N)ncc2C#Cc2cccc(O)c2)cc2c1CCNC2=O [compound 2, 2-[2-Amino-5-(3-hydroxy-phenylethynyl)-pyrimidin-4-yl]-1-methyl-1,5,6,7-tetrahydro-pyrrolo[3,2-c]pyridin-4-one] | 7910 | 6090 | > 10000 |
| Nc1ncc(C#Cc2cccc(O)c2)c(-c2cc3c(n2CCF)CCNC3=O)n1 [compound 3, 2-[2-Amino-5-(3-hydroxy-phenylethynyl)-pyrimidin-4-yl]-1-(2-fluoro-ethyl)-1,5,6,7-tetrahydro-pyrrolo[3,2-c]pyridin-4-one] | 4750 | 6460 | 710 |
| Cn1c(-c2ccnc(NC(=O)c3cc(Br)cs3)n2)cc2c1CCNC2=O [compound 4, 4-Bromo-thiophene-2-carboxylic acid[4-(1-methyl-4-oxo-4,5,6,7-tetrahydro-1H-pyrrolo[3,2-c]pyridin-2-yl)-pyrimidin-2-yl]-amide] | 2450 | 490 | 460 |
| Cn1c(-c2ccnc(NCc3cccc(Cl)c3)n2)cc2c1CCNC2=O [compound 6, 2-[2-(3-Chloro-benzylamino)-pyrimidin-4-yl]-1-methyl-1,5,6,7-tetrahydro-pyrrolo[3,2-c]pyridin-4-one hydrochloride] | 5790 | 1760 | 2110 |
| Cn1c(-c2ccnc(NCc3cc(Br)cs3)n2)cc2c1CCNC2=O [compound 7, 2-{2-[(4-Bromo-thiophen-2-ylmethyl)-amino]-pyrimidin-4-yl}-1-methyl-1,5,6,7-tetrahydro-pyrrolo[3,2-c]pyridin-4-one hydrochloride] | 9760 | 2910 | 2140 |
| Cn1c(-c2ccnc(C#Cc3cccc(Cl)c3)n2)cc2c1CCNC2=O [compound 8, 2-[2-(3-Chloro-phenylethynyl)-pyrimidin-4-yl]-1-methyl-1,5,6,7-tetrahydro-pyrrolo[3,2-c]pyridin-4-one] | 820 | 210 | 930 |
| Cn1c(-c2ccnc(/C=C/c3cccc(Cl)c3)n2)cc2c1CCNC2=O [compound 9, 2-{2-[(E)-2-(3-Chloro-phenyl)-vinyl]-pyrimidin-4-yl}-1-methyl-1,5,6,7-tetrahydro-pyrrolo[3,2-c]pyridin-4-one] | 1220 | 370 | 400 |
| Cn1c(-c2ccnc(NC(=O)c3cccc(Cl)c3)n2)cc2c1CCNC2=O [compound 10, 3-Chloro-N-[4-(1-methyl-4-oxo-4,5,6,7-tetrahydro-1H-pyrrolo[3,2-c]pyridin-2-yl)-pyrimidin-2-yl]-benzamide] | 1980 | 450 | 1600 |
| Cn1c(-c2ccnc(NC(=O)c3cccs3)n2)cc2c1CCNC2=O [compound 11, Thiophene-2-carboxylic acid [4-(1-methyl-4-oxo-4,5,6,7-tetrahydro-1H-pyrrolo[3,2-c]pyridin-2-yl)-pyrimidin-2-yl]-amide] | 2420 | 1700 | 2910 |
| Cn1c(-c2ccnc(NC(=O)c3ccsc3)n2)cc2c1CCNC2=O [compound 12, Thiophene-3-carboxylic acid [4-(1-methyl-4-oxo-4,5,6,7-tetrahydro-1H-pyrrolo-[3,2-c]pyridin-2-yl)-pyrimidin-2-yl]-amide] | 6410 | 2500 | 2380 |
| Cc1csc(C(=O)Nc2nccc(-c3cc4c(n3C)CCNC4=O)n2)c1 [compound 14, 4-Methyl-thiophene-2-carboxylic acid [4-(1-methyl-4-oxo-4,5,6,7-tetrahydro-1H-pyrrolo[3,2-c]pyridin-2-yl)-pyrimidin-2-yl]-amide] | 2640 | 770 | 1450 |
